Assays:
Type in all cases: in vivo
[1] = test system: barnyardgrass (Echinochloa crus-galli); assay: Test C greenhouse herbicide test, pre- and postemergence
Method in brief: (§1)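 Each species was treated both before emergence, in a loam–sand soil mix, and after emergence, as 1- to 4-leaf seedlings in peat-based potting medium. Plants stayed in the greenhouse 13 to 15 d, then were scored from 0 (no effect) to 100 (complete control) relative to controls.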

[2] = test system: blackgrass (Alopecurus myosuroides); assay: as above
Method in brief: as §1

corn (Zea mays) = assay: as above
Method in brief: as §1

[3] = test system: crabgrass, large (large crabgrass, Digitaria sanguinalis); assay: as above
Method in brief: as §1

[4] = test system: foxtail, giant (giant foxtail, Setaria faberii); assay: as above
Method in brief: as §1

[5] = test system: johnsongrass (Sorghum halepense); assay: as above
Method in brief: as §1

[6] = test system: lambsquarters (Chenopodium album); assay: as above
Method in brief: as §1

[7] = test system: morningglory (Ipomoea coccinea); assay: as above
Method in brief: as §1

[8] = test system: pigweed (Amaranthus retroflexus); assay: as above
Method in brief: as §1

[9] = test system: ragweed (common ragweed, Ambrosia elatior); assay: as above
Method in brief: as §1

[10] = test system: ryegrass, Italian (Italian ryegrass, Lolium multiflorum); assay: as above
Method in brief: as §1

soybean (Glycine max) = assay: as above
Method in brief: as §1

[11] = test system: waterhemp (common waterhemp, Amaranthus rudis); assay: as above
Method in brief: as §1

[12] = test system: wheat (winter wheat, Triticum aestivum); assay: as above
Method in brief: as §1

kochia (Kochia scoparia) = assay: Test C greenhouse herbicide test, postemergence
Method in brief: (§2)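 Postemergence foliar treatment, 1- to 4-leaf stage (2–18 cm), peat/vermiculite medium; greenhouse 13–15 d; visual rating vs controls, 0 = no effect, 100 = complete control; dash = no result.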

[13] = test system: oat, wild (wild oat, Avena fatua); assay: Test C greenhouse herbicide test, postemergence
Method in brief: as §2

[14] = Postemergence, 31 g ai/ha, scale 0 to 100 (0 no effect, 100 complete control)
[15] = Postemergence, 62 g ai/ha, 0 to 100 scale (0 no effect, 100 complete control)
[16] = Postemergence, 250 g ai/ha, scale 0 to 100, 0 no effect, 100 complete control, 13 to 15 d
[17] = Preemergence, 31 g ai/ha, scale 0 to 100, 0 is no effect, 100 is complete control
[18] = Preemergence, 62 g ai/ha, scale 0 to 100, 0 is no effect, 100 is complete control
[19] = Preemergence, 125 g ai/ha, scale 0 to 100, 0 is no effect, 100 is complete control
[20] = Preemergence, 250 g ai/ha, scale 0 to 100 (0 no effect, 100 complete control)
[21] = postemergence, 125 g ai/ha, scale 0 to 100, 0 no effect, 100 complete control

Cc1cc(C)c2ccccc2c1-c1c(OS(C)(=O)=O)c(C)nn(C)c1=O [Compound 154]
75: Plant response rating, Crabgrass, Large [3, 16] | Johnsongrass plant response rating [5, 20] | Ragweed plant response rating [9, 15] | Plant response rating, Waterhemp [11, 14]
30: Plant response rating, Waterhemp [11, 17] | Wheat plant response rating [12, 20]
65: Plant response rating, Barnyardgrass [1, 17] | Blackgrass plant response rating [2, 15] | Plant response rating, Crabgrass, Large [3, 14] | Plant response rating, Pigweed [8, 14]
15: Plant response rating, Corn (corn (Zea mays); [14]) | Plant response rating, Lambsquarters [6, 17]
95: Plant response rating, Barnyardgrass [1, 16] | Barnyardgrass plant response rating [1, 20] | Plant response rating, Foxtail, Giant [4, 16] | Plant response rating, Foxtail, Giant [4, 18] | Foxtail, Giant plant response rating [4, 21] | Plant response rating, Lambsquarters [6, 16] | Lambsquarters plant response rating [6, 20] | Plant response rating, Morningglory [7, 14] | Plant response rating, Pigweed [8, 18] | Plant response rating, Ragweed [9, 18] | Ragweed plant response rating [9, 20] | Plant response rating, Ryegrass, Italian [10, 16] | Plant response rating, Waterhemp [11, 19]
20: Plant response rating, Johnsongrass [5, 16] | Johnsongrass plant response rating [5, 21] | Soybean plant response rating (soybean (Glycine max); [15]) | Soybean plant response rating (soybean (Glycine max); [20]) | Soybean plant response rating (soybean (Glycine max); [21])
70: Plant response rating, Barnyardgrass [1, 14] | Crabgrass, Large plant response rating [3, 15] | Plant response rating, Crabgrass, Large [3, 17] | Crabgrass, Large plant response rating [3, 21] | Plant response rating, Ragweed [9, 14] | Plant response rating, Waterhemp [11, 16]
60: Plant response rating, Blackgrass [2, 14] | Blackgrass plant response rating [2, 21] | Plant response rating, Lambsquarters [6, 18] | Kochia plant response rating (kochia (Kochia scoparia); [21])
98: Morningglory plant response rating [7, 15] | Morningglory plant response rating [7, 21]
80: Plant response rating, Barnyardgrass [1, 18] | Plant response rating, Ragweed [9, 17] | Plant response rating, Ryegrass, Italian [10, 14] | Waterhemp plant response rating [11, 15] | Plant response rating, Kochia (kochia (Kochia scoparia); [16]) | Oat, Wild plant response rating [13, 15]
90: Plant response rating, Barnyardgrass ([1]; Postemergence, 125 g ai/ha, scale 0 to 100, 0 is no effect, 100 is complete control) | Plant response rating, Barnyardgrass [1, 19] | Blackgrass plant response rating [2, 20] | Plant response rating, Crabgrass, Large [3, 19] | Foxtail, Giant plant response rating [4, 15] | Plant response rating, Lambsquarters [6, 14] | Lambsquarters plant response rating [6, 21] | Morningglory plant response rating [7, 20] | Pigweed plant response rating [8, 21] | Plant response rating, Ragweed [9, 16] | Plant response rating, Ragweed [9, 19] | Ryegrass, Italian plant response rating [10, 15] | Plant response rating, Ryegrass, Italian [10, 19] | Ryegrass, Italian plant response rating [10, 20] | Ryegrass, Italian plant response rating [10, 21] | Plant response rating, Oat, Wild [13, 16] | Oat, Wild plant response rating [13, 21]
55: Plant response rating, Pigweed [8, 17] | Plant response rating, Ryegrass, Italian [10, 18] | Plant response rating, Oat, Wild [13, 14]
10: Plant response rating, Johnsongrass [5, 17] | Plant response rating, Soybean (soybean (Glycine max); [14]) | Wheat plant response rating [12, 21]
50: Plant response rating, Blackgrass [2, 18] | Plant response rating, Johnsongrass [5, 19] | Plant response rating, Kochia (kochia (Kochia scoparia); [14]) | Kochia plant response rating (kochia (Kochia scoparia); [15])
85: Barnyardgrass plant response rating [1, 15] | Plant response rating, Blackgrass [2, 16] | Plant response rating, Blackgrass [2, 19] | Plant response rating, Crabgrass, Large [3, 18] | Plant response rating, Foxtail, Giant [4, 14] | Plant response rating, Foxtail, Giant [4, 17] | Lambsquarters plant response rating [6, 15] | Plant response rating, Lambsquarters [6, 19] | Plant response rating, Morningglory [7, 18] | Plant response rating, Morningglory [7, 19] | Pigweed plant response rating [8, 15] | Plant response rating, Pigweed [8, 16] | Ragweed plant response rating [9, 21] | Plant response rating, Waterhemp [11, 18] | Waterhemp plant response rating [11, 21]
40: Plant response rating, Ryegrass, Italian [10, 17]
0: Plant response rating, Soybean (soybean (Glycine max); [17]) | Plant response rating, Wheat [12, 14] | Plant response rating, Wheat [12, 17] | Plant response rating, Wheat [12, 18] | Plant response rating, Wheat [12, 19]
100: Crabgrass, Large plant response rating [3, 20] | Plant response rating, Foxtail, Giant [4, 19] | Foxtail, Giant plant response rating [4, 20] | Plant response rating, Morningglory [7, 16] | Plant response rating, Pigweed [8, 19] | Pigweed plant response rating [8, 20] | Waterhemp plant response rating [11, 20]
25: Plant response rating, Soybean (soybean (Glycine max); [16])
5: Plant response rating, Blackgrass [2, 17] | Corn plant response rating (corn (Zea mays); [15]) | Plant response rating, Corn (corn (Zea mays); [16]) | Plant response rating, Corn (corn (Zea mays); [17]) | Plant response rating, Corn (corn (Zea mays); [18]) | Plant response rating, Corn (corn (Zea mays); [19]) | Corn plant response rating (corn (Zea mays); [20]) | Corn plant response rating (corn (Zea mays); [21]) | Plant response rating, Johnsongrass [5, 14] | Johnsongrass plant response rating [5, 15] | Plant response rating, Soybean (soybean (Glycine max); [18]) | Plant response rating, Soybean (soybean (Glycine max); [19]) | Wheat plant response rating [12, 15] | Plant response rating, Wheat [12, 16]
45: Plant response rating, Johnsongrass [5, 18] | Plant response rating, Morningglory [7, 17]

— US10597388B2, “Pyridazinone herbicides” (FMC CORPORATION, priority 2014, dated 2020)
